Where two headings read alike, the source gives them in different places.
Target: WDR5 protein (Homo sapiens (Human), UniProt P61964)
Assay: Surface Plasmon Resonance (SPR) assay
Format: binding
Details: for residence time: τ=1/koff, read-out: Residence Time (t, min)
[1] = SPR, Table 1, read-out: WDR5 binding affinity (KD)
[2] = SPR, Table 2, read-out: WDR5 binding affinity SPR (KD)

Method: Exemplary compounds of the application were dissolved in 100% DMSO at 10 mM, assayed fresh, and then stored at −20° C. for repeat studies and other experiments. Full length WDR5 with an N-terminal His tag and C-terminal AviTag (Avidity Inc.) was expressed in E. coli with coexpression of BirA to biotin label the protein in vivo. Purification was via Ni-NTA. The purified WDR5 protein has a molecular weight of 41976 Da.
SPR studies were performed using a Biacore™ T200 instrument (GE Health Sciences Inc.). Biotinylated WDR5 protein (approximately 3000RU) was stably captured to streptavidin coupled SA chips according to the manufacture's protocol (GE Health Sciences Inc.). The running buffer used was HBS-EP (20 mM Hepes pH 7.4, 150 mM NaCl, 3 mM EDTA, 0.05% P-20) plus 5% DMSO with a flow rate of 40p1/min. For SPR analysis, 5 different concentrations of each exemplary compound of the application were sprayed into 96 or 384 well plates using an HP D300 digital dispenser. […] Curve fitting and KD calculations were performed with the Biacore T200 Evaluation software (GE Health Sciences Inc).

| Kd [1] | Kd [2] | residence time (SPR) | SMILES | Kd |
| --- | --- | --- | --- | --- |
| 23 nM | 23 nM | 1.3 min | C[C@@H]1CN(c2ccc(-c3ccc(F)c(CN(C)C4COC4)c3F)cc2NC(=O)c2c[nH]c(=O)cc2C(F)(F)F)C[C@H](C)N1C [Example 112, N-(2′,4′-difluoro-3′-((methyl(oxetan-3-yl)amino)methyl)-4-((3S,5R)-3,4,5-trimethylpiperazin-1-yl)-[1,1′-biphenyl]-3-yl)-6-oxo-4-(trifluoromethyl)-1,6-dihydropyridine-3-carboxamide] | – |
| 102 nM | 102 nM | 0.94 min | CN1CCN(c2ccc(-c3ccccc3F)cc2NC(=O)c2c[nH]c(=O)cc2C(F)(F)F)CC1 [Example 25, N-(2′-fluoro-4-(4-methylpiperazin-1-yl)-[1,1′-biphenyl]-3-yl)-6-oxo-4-(trifluoromethyl)-1,6-dihydropyridine-3-carboxamide] | – |
| 2270 nM | 2270 nM | – | CN(C)C1CCN(c2ccc(-c3cc(CN4CCOCC4)ccc3F)cc2NC(=O)c2cn(C)c(=O)cc2C(F)(F)F)C1 (stereo not shown) [Example 101, N-(4-(3-(dimethylamino)pyrrolidin-1-yl)-2′-fluoro-5′-(morpholinomethyl)-[1,1′-biphenyl]-3-yl)-1-methyl-6-oxo-4-(trifluoromethyl)-1,6-dihydropyridine-3-carboxamide] | – |
| > 200 nM | > 200 nM | – | CN1CCN(c2ccc(-c3cc(CN4CCOCC4)ccc3F)cc2NC(=O)c2cc(F)cc3[nH]cnc23)CC1 [Example 102, 6-fluoro-N-(2′-fluoro-4-(4-methylpiperazin-1-yl)-5′-(morpholinomethyl)-[1,1′-biphenyl]-3-yl)-1H-benzo[d]imidazole-4-carboxamide] | – |
| > 200 nM | > 200 nM | – | COc1cc(C(F)(F)F)c(C(=O)Nc2cc(-c3cc(CN(C)[C@H]4CCOC4)ccc3F)ccc2N2CCN(C)CC2)cn1 [Example 58, (S)—N-(2′-fluoro-5′-((methyl(tetrahydrofuran-3-yl)amino)methyl)-4-(4-methylpiperazin-1-yl)-[1,1′-biphenyl]-3-yl)-6-methoxy-4-(trifluoromethyl)nicotinamide] | – |
| > 200 nM | > 200 nM | – | COc1cc(C(F)(F)F)c(C(=O)Nc2cc(-c3cc(CN4CCC(C(C)C)C4)ccc3F)ccc2N2CCN(C)CC2)cn1 (stereo in doubt) [Example 53, (R)—N-(2′-fluoro-5′-((3-isopropylpyrrolidin-1-yl)methyl)-4-(4-methylpiperazin-1-yl)-[1,1′-biphenyl]-3-yl)-6-methoxy-4-(trifluoromethyl)nicotinamide] | – |
| 4000 nM | 4000 nM | – | C[C@H]1CN(C)CCN1c1ccc(-c2cc(CN3CCOCC3)ccc2F)cc1NC(=O)c1c[nH]c(=O)cc1C(F)(F)F [Example 104, (S)—N-(4-(2,4-dimethylpiperazin-1-yl)-2′-fluoro-5′-(morpholinomethyl)-[1,1′-biphenyl]-3-yl)-6-oxo-4-(trifluoromethyl)-1,6-dihydropyridine-3-carboxamide] | – |
| > 200 nM | > 200 nM | – | Cc1cc(C(=O)Nc2cc(-c3cc(CN4CCOCC4)ccc3F)ccc2N2CC3CN(C)CC3C2)cc(C)c1F (stereo not shown) [Example 94, 4-fluoro-N-(2′-fluoro-4-(5-methylhexahydropyrrolo[3,4-c]pyrrol-2(1H)-yl)-5′-(morpholinomethyl)-[1,1′-biphenyl]-3-yl)-3,5-dimethylbenzamide] | – |
| 3.6 nM | 4 nM | 4.2 min | C[C@@H]1CN(c2ccc(-c3ccc(C(N)=O)c(F)c3F)cc2NC(=O)c2c[nH]c(=O)cc2C(F)(F)F)C[C@H](C)N1C [Example 123, N-(4′-carbamoyl-2′,3′-difluoro-4-((3S,5R)-3,4,5-trimethylpiperazin-1-yl)-[1,1′-biphenyl]-3-yl)-6-oxo-4-(trifluoromethyl)-1,6-dihydropyridine-3-carboxamide] | – |
| 10 nM | 10.3 nM | 3.24 min | C[C@@H]1CN(c2ccc(-c3ccc(F)c(CNC4CCCCC4)c3F)cc2NC(=O)c2c[nH]c(=O)cc2C(F)(F)F)C[C@H](C)N1C [Example 83, N-(3′-((cyclohexylamino)methyl)-2′,4′-difluoro-4-((3S,5R)-3,4,5-trimethylpiperazin-1-yl)-[1,1′-biphenyl]-3-yl)-6-oxo-4-(trifluoromethyl)-1,6-dihydropyridine-3-carboxamide] | – |
| 14 nM | 14 nM | 4.25 min | CN1CCN(c2ccc(-c3cc(CNC4CC4)ccc3F)cc2NC(=O)c2c[nH]c(=O)cc2C(F)(F)F)CC1 [Example 17, N-(5′-((cyclopropylamino)methyl)-2′-fluoro-4-(4-methylpiperazin-1-yl)-[1,1′-biphenyl]-3-yl)-6-oxo-4-(trifluoromethyl)-1,6-dihydropyridine-3-carboxamide] | – |
| 316 nM | 316 nM | – | Cc1cc(C(=O)Nc2cc(-c3cc(CN4CCOCC4)ccc3F)ccc2N2CCC(N(C)C)C2)cc(C)c1F (stereo not shown) [Example 91, N-(4-(3-(dimethylamino)pyrrolidin-1-yl)-2′-fluoro-5′-(morpholinomethyl)-[1,1′-biphenyl]-3-yl)-4-fluoro-3,5-dimethylbenzamide] | – |
| 3.7 nM | 4 nM | 2.8 min | C[C@@H]1CN(c2ccc(-c3cc(C(N)=O)ccc3F)cc2NC(=O)c2c[nH]c(=O)cc2C(F)(F)F)C[C@H](C)N1C [Example 119, N-(5′-carbamoyl-2′-fluoro-4-((3S,5R)-3,4,5-trimethylpiperazin-1-yl)-[1,1′-biphenyl]-3-yl)-6-oxo-4-(trifluoromethyl)-1,6-dihydropyridine-3-carboxamide] | – |
| 93 nM | 93 nM | 0.6 min | Cc1c(F)ccc(C(=O)Nc2cc(-c3cc(CN4CCOCC4)ccc3F)ccc2N2CCN(C)CC2)c1Cl [Example 12, 2-chloro-4-fluoro-N-(2′-fluoro-4-(4-methylpiperazin-1-yl)-5′-(morpholinomethyl)-[1,1′-biphenyl]-3-yl)-3-methylbenzamide] | – |
| 6 nM | 6 nM | 12.5 min | C[C@@H]1CN(c2ccc(-c3cc(C(=O)NC(C)(C)CC(C)(C)C)c(F)cc3F)cc2NC(=O)c2c[nH]c(=O)cc2C(F)(F)F)C[C@H](C)N1C [Example 120, N-(2′,4′-difluoro-5′-((2,4,4-trimethylpentan-2-yl)carbamoyl)-4-((3S,5R)-3,4,5-trimethylpiperazin-1-yl)-[1,1′-biphenyl]-3-yl)-6-oxo-4-(trifluoromethyl)-1,6-dihydropyridine-3-carboxamide] | – |
| 1000 nM | 1000 nM | – | COc1cccc(C(=O)Nc2cc(-c3cc(CN4CCOCC4)ccc3F)ccc2N2CCN(C)CC2)c1 [Example 10, N-(2′-fluoro-4-(4-methylpiperazin-1-yl)-5′-(morpholinomethyl)-[1,1′-biphenyl]-3-yl)-3-methoxybenzamide] | – |
| > 200 nM | > 200 nM | – | CN1CCN(c2ccc(-c3cc(CN4CCOCC4)ccc3F)cc2NC(=O)c2cnc(N)cc2C(F)(F)F)CC1 [Example 109, 6-amino-N-(2′-fluoro-4-(4-methylpiperazin-1-yl)-5′-(morpholinomethyl)-[1,1′-biphenyl]-3-yl)-4-(trifluoromethyl)nicotinamide] | – |
| 86 nM | 86 nM | 0.88 min | CN1CCN(c2ccc(-c3cc(C(N)=O)c(O)cc3F)cc2NC(=O)c2c[nH]c(=O)cc2C(F)(F)F)CC1 [Example 4, N-(5′-carbamoyl-2′-fluoro-4′-hydroxy-4-(4-methylpiperazin-1-yl)-[1,1′-biphenyl]-3-yl)-6-oxo-4-(trifluoromethyl)-1,6-dihydropyridine-3-carboxamide] | – |
| > 200 nM | > 200 nM | – | Cc1cc(C(=O)Nc2cc(-c3cc(CN4CCOCC4)ccc3F)ccc2N2CCN(CC(F)(F)F)CC2)cc(C)c1F [Example 95, 4-fluoro-N-(2′-fluoro-5′-(morpholinomethyl)-4-(4-(2,2,2-trifluoroethyl)piperazin-1-yl)-[,1′-biphenyl]-3-yl)-3,5-dimethylbenzamide] | – |
| 26 nM | 26 nM | 1.36 min | COC(=O)c1ccc(F)c(-c2ccc(N3CCN(C)CC3)c(NC(=O)c3c[nH]c(=O)cc3C(F)(F)F)c2)c1 [Example 14, methyl 6-fluoro-4′-(4-methylpiperazin-1-yl)-3′-(6-oxo-4-(trifluoromethyl)-1,6-dihydropyridine-3-carboxamido)-[1,1′-biphenyl]-3-carboxylate] | – |
| 29 nM | 29 nM | 1.88 min | CN1CCN(c2ccc(-c3cc(OC(F)(F)F)ccc3F)cc2NC(=O)c2c[nH]c(=O)cc2C(F)(F)F)CC1 [Example 5, N-(2′-fluoro-4-(4-methylpiperazin-1-yl)-5′-(trifluoromethoxy)-[1,1′-biphenyl]-3-yl)-6-oxo-4-(trifluoromethyl)-1,6-dihydropyridine-3-carboxamide] | – |
| 5930 nM | 5930 nM | – | CN1CC2CN(c3ccc(-c4cc(CN5CCOCC5)ccc4F)cc3NC(=O)c3c[nH]c(=O)cc3C(F)(F)F)CC2C1 (stereo not shown) [Example 100, N-(2′-fluoro-4-(5-methylhexahydropyrrolo[3,4-c]pyrrol-2(1H)-yl)-5′-(morpholinomethyl)-[1,1′-biphenyl]-3-yl)-6-oxo-4-(trifluoromethyl)-1,6-dihydropyridine-3-carboxamide] | – |
| 15 nM | 14.8 nM | 0.78 min | CN1CCN(c2ncc(-c3cc(CNC4CCCCC4)ccc3F)cc2NC(=O)c2c[nH]c(=O)cc2C(F)(F)F)CC1 [Example 85, N-(5-(5-((cyclohexylamino)methyl)-2-fluorophenyl)-2-(4-methylpiperazin-1-yl)pyridin-3-yl)-6-oxo-4-(trifluoromethyl)-1,6-dihydropyridine-3-carboxamide] | – |

| SMILES | Kd [1] | Kd [2] | residence time (SPR) | Kd |
| --- | --- | --- | --- | --- |
| C[C@@H]1CN(c2ccc(-c3ccc(N4CCOCC4)cc3F)cc2NC(=O)c2c[nH]c(=O)cc2C(F)(F)F)C[C@H](C)N1C [Example 118, N-(2′-fluoro-4′-morpholino-4-((3S,5R)-3,4,5-trimethylpiperazin-1-yl)-[1,1′-biphenyl]-3-yl)-6-oxo-4-(trifluoromethyl)-1,6-dihydropyridine-3-carboxamide] | – | 6 nM | 7.2 min | 5.6 nM |

— US11174250B2, “Substituted carboxamides as inhibitors of WDR5 protein-protein binding” (PROPELLON THERAPEUTICS INC., priority 2016, dated 2021)
